From patent publication US12180249B1, “Compositions and methods for selective labeling of secondary amines” (Emory University, priority 2021, dated 2024)

Test: chemical stability of the triazene-coupling product under different conditions
Format: physicochemical
Conditions: incubated in water:ACN mixture for 24 h
Description: The chemical stability of the triazene-coupling product was tested under different conditions. The triazene-coupling product acts as a protecting group for secondary amines and tolerates various coupling reagents, such as N,N′-diisopropylcarbodiimide (DIC), and bases, such as N,N-diisopropylethylamine (DIEA) and pyridine (PPR), which is required for Fmoc peptide synthesis. It is also stable to a strong protein disulfide reducing agent tris(2-carboxyethyl) phosphine (TCEP) and click chemistry (CuAAC) conditions. […] This is in contrast to the stability of the azo coupling product with Tyr, which degrades quickly in the presence of sodium dithionate to generate modified tyrosine
Even though the triazene-secondary amine linkage is stable under physiologically relevant conditions, experiments were performed to determine whether the conjugate can be decoupled in a traceless manner. Indeed, exposure of the triazene modified peptide 4 MDz-AKmeF to acidic conditions (10% TFA in H2O) led to its rapid cleavage in 5 min to unchanged peptide AKmeF, as observed by HPLC and MS analysis. It is noteworthy that the acidic cleavage generated original coupling partners in an unperturbed manner. In contrast, a handful of the coupling reactions are reversible, but the products derived from decoupling are modified versions of the original reactants. […]

For `COC(=O)C1CCCN1N=Nc1ccc(OC)cc1` (stereo not shown) [4 MDz-Pro-OMe], the “decomposition of the triazene-coupling product” value was “no decomposition”.
